Where two headings read alike, the source gives them in different places.
What was measured:
[1] = molecular target: T1, UBE2T/FANCLRING (ubiquitylation of GST-FANCLRING) (Homo sapiens, UniProt Q9NW38); test: biochemical; conditions: for LE: ligand efficiency = 1.4(–logIC50)/HAC; for inhibition at 20 µM: read-out: Primary screen % Inhibition (20 M)
T1 sequence (Q9NW38 275-375 limits assumed): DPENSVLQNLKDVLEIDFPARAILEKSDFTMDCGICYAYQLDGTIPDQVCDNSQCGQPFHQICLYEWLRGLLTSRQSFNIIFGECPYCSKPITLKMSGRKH
From the text: To identify small-molecule inhibitors of the FA pathway, we developed a high-throughput screen (HTS) compatible assay based on the FA ubiquitylation cascade (see Figure 1a, as well as Figure S1 in the Supporting Information). Given the complexity of the full FA ubiquitylation cascade, we constructed a simplified ubiquitylation reaction that would be robust for HTS purposes yet still provide many relevant protein species for small molecules to interact with. The recombinant protein assay developed used homogeneous time-resolved fluorescence (HTRF) and contained Cy5-labeled ubiquitin, the E1 enzyme UBE1, the E2 enzyme UBE2T, and the RING domain (residues 275–375) of the E3 FANCL (FANCLRING). FANCLRING was used as a surrogate substrate for ubiquitylation in the absence of the FA core and FANCD2/FANCI complexes.
Figure 1 Screening for inhibitors of the FA pathway. (a) Schematic of the HTRF ubiquitylation assay. Ubiquitylation of GST-tagged E3 (FANCLRING) by the E2 (UBE2T) places Cy5-labeled ubiquitin in close proximity to the anti-GST Tb cryptate. Excitation of the Tb cryptate donor results in FRET to the Cy5 acceptor. Simultaneous monitoring of the donor emission (620 nm) and acceptor emission (665 nm) allows for determination of the 665/620 ratio. (b) HTRF screen results showing average inhibition (n = 2) produced by compounds at 20 μM (in-house diversity library; 10 111 compounds) and 10 μM (Selleckchem epigenetic library; 119 compounds). Numbers given in parentheses represent the number of compounds per inhibition threshold.
Purified protein was concentrated using a Vivaspin-6 concentrator with a 10 kDa MW cut-off (Vivascience) and flash-frozen in small aliquots for storage at […]
Cy5 labelling of ubiquitin. To a 5 mg/mL solution of recombinant human ubiquitin (Boston Biochem) in 0.1 M NaHCO3 pH 8.3, was added a 4-fold molar excess of Cyanine5 NHS ester (Lumiprobe). The reaction was incubated at 23 °C for 4 hours in the dark. The protein was separated from unreacted dye by passage through a PD-10 desalting column (GE Healthcare) equilibrated with PBS. Purified protein was concentrated using a Vivaspin-6 concentrator with a 3 kDa MW cut-off (Vivascience) and flash-frozen in small aliquots for storage […]
Homogeneous Time-Resolved Fluorescence (HTRF) Assay. GST-FANCLRING (200 nM) was incubated with anti-GST Tb (CisBio, #61GSTTL) (2.5 ng final) at room temperature for 30 minutes in assay buffer (50 mM Tris-HCl pH 8.0, 1 mM TCEP, 5 mM MgCl2, 0.005% Tween-20). Meanwhile, 10 μL of UBE2T in assay buffer (or assay buffer alone for no enzyme controls) was incubated in a white 384-well plate (Corning) with 20 nL DMSO or compound in DMSO. After 30 minutes, the GST-RINGRING solution was added to an equal volume solution containing His-UBE1 (Boston Biochem) (16 nM), Cy5-ubiquitin (400 nM), ATP (0.8 mM) in assay buffer. 10 μL of this solution was immediately added to each well of the 384 -well plate containing UBE2T or buffer. F inal concentrations: His -UBE1 (4 nM), UBE2T (6 nM), GST -RINGRING (50 nM), Cy5-ubiquitin (100 nM), ATP (0.2 mM), compound (10 or 20 μM) in 0.1 %
(v/v) DMSO. After a 10 minute incubation at 23 °C, 5 µL of a 50 mM EDTA solution were added to each well to stop the reaction. Signal was measured at λEx 340 nm and λEm 665 nm and 620 nm using a PHERAstar FS plate reader
(BMG Labtech). A ratio was calculated as [λEm(665)/λEm(620)] × 104 for each well and this was used to determine the percent inhibition for test compounds.
Gel-based ubiquitylation assays. Assays were carried out in a total volume of 10 µL containing 20 nM His6-UBE1 (Boston Biochem), 50 nM UBE2T, 250 nM GST-E3 and 500 nM biotinylated ubiquitin (Boston Biochem) in buffer (50

[2] = tested on: U2OS cells; test: IncuCyte cell proliferation assay; format: cell-based; conditions: 15 μM carboplatin in DMSO-treated cells
Description: (§1) Figure 4 Further cell-based assays with CU1 and CU2: (a, b) Representative immunofluorescence images of U2OS cells treated with HU (2.5 mM, 8 h) or cisplatin (10 μM, 8 h) in the presence or absence of CU1 (200 μM) or CU2 (500 μM). (c) Quantification of the number of FANCD2 foci in cells treated as in panels (a) and (b). Data accumulated over three independent experiments, each consisting of three technical replicas. (d) IncuCyte analysis of U2OS cells treated with or without carboplatin (15 μM) and CU2 (250 μM). Mean calculated from three wells, four images per well. (HU = DMSO + HU, cisplatin = DMSO + cisplatin).
Finally, to investigate if CU1 and CU2 could sensitize cells to a more clinically relevant chemotherapeutic agent, quantitative live cell analyses were performed using the IncuCyte platform. As the FA pathway is involved in the repair of ICLs, cells were treated with the ICL-inducing chemotherapeutic drug, carboplatin. For this experiment, U2OS cells were seeded at a relatively low (<10%) density and preincubated with CU1 or CU2 for 1 h. Carboplatin was then added to the cells and images were taken every 6 h for 8 days in order to monitor growth and proliferation of the cells.
Reaction mixtures were incubated for the indicated time at 37 °C and stopped by the addition of 2X reducing SDS -PAGE sample buffer, separated on NuPAGE Novex 4 –12% Bis/Tris gradient gels (Invitrogen) and visualized by Western blotting using the indicated antibodies (Table S3).
Cell culture. U2OS cells were cultured at 37 °C in a humidified atmosphere and 5% (v/v) CO2 in Dulbecco's Modified Eagle Medium (DMEM; Sigma-Aldrich) supplemented with 10% (v/v) fetal bovine serum (FBS), 100 units/ml of penicillin, […] of streptomycin and 292 μg/mL L-glutamine.
Cell extract preparation and immunoblotting. U2OS cells were lysed in buffer containing 50 mM Tris-HCl pH 7.5, 2% SDS, 10 mM NEM, cocktail protease inhibitor (Roche) and phosphatase inhibitor cocktail followed by sonication 100 µg of extracts were boiled for 5 mins at 95 °C in 5X loading buffer and loaded onto NuPAGE Novex 4–12% Bis/Tris gradient gels
(Invitrogen), or NuPAGE Novex 3-8% Tris/Acetate gradient gels (Invitrogen) for detection of mUb-FANCD2. After separation the gels were transferred to PVDF and the membranes were blocked with Tris-buffered saline containing 0.1% (v/v) Tween-20 (TBST) and 5% (v/v) bovine serum albumin (BSA) and incubated with the indicated primary and secondary antibodies. mUb-FANCD2 intensity was quantified using Image Studio (LI-COR).
IncuCyte cell proliferation assays. 2000 U2OS cells were seeded per well in 96-well plates and treated with compounds 24 hours afterwards. After 1 hour of compound treatment, 15 µM carboplatin (Sigma-Aldrich) was added and the cells were cultured in an incubator with an IncuCyte microscopy -platform (Essen BioScience). Phase -contrast images were acquired every 6 hours for 8 days until DMSO-carboplatin treated cells reached >80% confluence. Cell proliferation was monitored as the occupied area (% confluence) of cell images over time and calculated as percentage confluence over time. Cell confluency percentages were calculated using the integrated Cell Player software and results were analysed with Prism 6 (GraphPad Software).

[3] = tested on: FANCD2 foci and γH2AX in U2OS cells; test: High-throughput high content indirect immunofluorescence (FANCD2 foci, γH2AX); format: cell-based; conditions: CU2 500 μM, HU 2.5 mM 8 h, cisplatin 10 μM 8 h; for H2AX positive nuclei, Experiment 1 / H2AX positive nuclei, Experiment 2 / H2AX positive nuclei, Experiment 3: CU1 200 μM, raw data; for H2AX positive nuclei, Totals: sum of experiments 1-3, CU1 200 μM
Description: In response to DNA damage, mUb-FANCD2 accumulates at sites of DNA lesions to form foci, promote DNA-damage sensing, activate cell-cycle checkpoints, and promote DNA repair.[23] Therefore, we employed high-throughput high-content indirect immunofluorescence studies to examine the effect of CU1 and CU2 on mUb-FANCD2 focus formation. The experimental format used was similar to the immunoblot-based experiments, excepting that, following treatment with HU (2.5 mM for 8 h) or cisplatin (10 μM for 8 h), cells were fixed, permeabilized and stained with specific FANCD2 primary and fluorescent secondary antibodies. In addition to monitoring mUb-FANCD2 foci, γH2AX was evaluated as a marker of DNA damage induction, and cell nuclei were visualized by 4′,6-diamidino-2-phenylindole (DAPI) staining. […] These observations are in accord with the immunoblot-based experiments wherein reductions in mUb-FANCD2 were observed (Figure 3a).
as §1, with “cisplatin). […]” for “cisplatin).”
buffer (1 hour at room temperature) followed by three washes with PBST. Cells were then counterstained with DAPI (25 µg/mL) and mounted using Vectashield […]
High-throughput high content indirect immunofluorescence. U2OS cells, seeded in a 96-well plate, were treated with compound for 1 hour followed by 2.5 mM HU or 10 µM cisplatin for 8 hours. Cells were washed 3 times with wash buffer (1xPBS, 0.1% Tween-20) before being fixed in 2% paraformaldehyde (w/v) for 20 minutes at 23 °C. The cells were then washed a further 3 times in wash buffer before being stored overnight at 4°C in the final wash. Next day, the cells were permeabilized using 1xPBS, 0.5% Triton X-100 for 15 minutes at 23 °C and then washed 3 times with wash buffer before blocking with 5% BSA in 1xPBS, 0.1% Tween-20 for 30 minutes at 23 °C. After washing 3 times with wash buffer, the cells were incubated for 1 hour at 23 °C in the presence of primary antibodies (1:50 FANCD2, Santa Cruz, mouse monoclonal and 1:250 γH2AX, Cell Signalling, rabbit) in 5% BSA in wash buffer. After incubation in the presence of primary antibodies, the cells were washed 3 times with wash buffer before being incubated with secondary antibodies in 5% BSA in wash buffer for 1 hour in the dark at 23 °C. The secondary antibodies used were goat anti-mouse AlexaFluor 488 and goat anti-rabbit AlexaFluor 594 (both from Molecular Probes, Invitrogen). The cells were then washed a further 3 times with wash buffer before being stained in the presence of 2 µg/ml DAPI (Sigma D9542) in wash buffer for 10 minutes in the dark at 23 °C. After DAPI staining, the cells were washed 3 more times with wash buffer and stored in the final wash until ready for imaging.
A spinning-disk Opera PhenixTM (Perkin Elmer) microscope equipped with a 40x water immersion objective was employed to acquire 10 confocal images for each well in a single optimized focal plane comprising three fluorescence channels: 405, 488 and 568 nm for DAPI, Alexa Fluor 488 and Alexa Fluor 594, respectively. Image analysis and evaluation was done using Harmony High-Content Imaging and Analysis software. DAPI staining (405 nm) was used to segment nuclei, which were further gated for the presence of γH2AX staining

[4] = library stock, 10-point dose-response, read-out: Primary screen IC50
[5] = printed beside the structures in Figure S3, read-out: IC50 (Figure S3)

| SMILES | IC50 [1, 4] [µM] | LE [1] | IC50 [1, 5] [µM] | inhibition at 20 µM [1] [%] | proliferation rate [2] | confluency ([2]; after 8 days) [%] | H2AX positive nuclei, Experiment 1 [3] | H2AX positive nuclei, Experiment 2 [3] | H2AX positive nuclei, Experiment 3 [3] | H2AX positive nuclei, Totals [3] |
| --- | --- | --- | --- | --- | --- | --- | --- | --- | --- | --- |
| COc1ccc(CNC(=O)c2ccc(-n3nccc3C)cc2)cc1C(=O)O [CU3] | 51.8 | 0.22 | 49.8 | 20.3 |  |  |  |  |  |  |
| N.N.O=C([O-])C1(C(=O)[O-])CCC1.[Pt+2] [carboplatin, reference compound] |  |  |  |  | clear reduction in proliferation rate | < 100 |  |  |  |  |
| Cc1nc2ccccc2n1CCNS(=O)(=O)c1ccc2c(c1)CC(=O)N2 [CU7] | 64.2 | 0.24 | 35.3 | 39.6 |  |  |  |  |  |  |
| N.N.[Cl][Pt][Cl] [cisplatin, reference compound] |  |  |  |  |  |  | 915 | 1122 | 1056 | 3093 |
| Cn1ncc(C#N)c1NC(=O)Cc1coc2cc3c(cc12)CCC3 [CU8] | 33.7 | 0.24 | 73.2 | 34 |  |  |  |  |  |  |
| O=C(c1ccc2n[nH]nc2c1)N1CCC(COc2ccccc2)CC1 [CU6] | 30.8 | 0.26 | 25.8 | 37 |  |  |  |  |  |  |
| NC(=O)NO [HU, Hydroxyurea, reference compound] |  |  |  |  |  |  | 390 | 672 | 708 | 1770 |
| Cc1cc(C(=O)O)cc(S(=O)(=O)Nc2ccccc2-n2cccn2)c1C [CU4] | 61 | 0.22 | 82.5 | 20.7 |  |  |  |  |  |  |

— PMC6804243, “Small-Molecule Inhibition of UBE2T/FANCL-Mediated Ubiquitylation in the Fanconi Anemia Pathway” (ACS Chemical Biology, 2019)
